From patent publication US8101180B2, “Anti-IGF-IR and/or anti-insulin/IGF-I hybrid receptors antibodies and uses thereof” (Pierre Fabre Medicament, priority 2002, dated 2012) come the findings set out here.

“Also recorded” adds a separate entry of the source.

Assay [1] deals with MCF-7 cells. Put plainly: IGF1-induced proliferation of MCF-7 cells (3H thymidine incorporation). It is filed as cell-based, human. The following applies: antibody 10 μg/ml; IGF-I 1 to 50 ng/ml. The protocol: The cell proliferation is evaluated by following the incorporation of ^3H thymidine. The commercial antibody αIR3 is used as a positive control of the experiment.
The cell proliferation is estimated by following on the β counter the incorporation of tritiated thymidine by the cells. The results are expressed as a proliferative index.
(In general: Incorporation of labelled thymidine or its analogues reports DNA synthesis.)

The subject of a further assay is A549 tumor. Nature of the assay: A549 non-small cell lung tumor subcutaneous xenograft. It is filed as in vivo, nude mice. The following applies: s.c. xenograft; for inhibition of A549 tumor growth in vivo, murine versus humanized antibody: 125 μg/dose twice per week i.p. The protocol:
Navelbine is a chemotherapy compound indicated in non-small cell cancer of the lung and in metastatic cancer of the breast. […] For this study, 5·10^6 A549 cells were grafted subcutaneously on the right flank of the mouse. Five days after the cell graft, the tumors are measurable and the treatments with MAb and/or navelbine are commenced. The MAb dose is always 250 μg/dose/mouse, twice per week, intra-peritoneally. Concerning navelbine, it will be administered at the maximum dose tolerated by the mouse or 10 mg/kg, intraperitoneally. For this treatment three injections will be carried out at intervals of 7 days. During the coadministrations, the two products are mixed before injection.
For this study, nude mice are grafted s.c. with 5·10^6 A549 cells. Five days after the cell graft, the tumors are measured and a homogeneous batch of mice in terms of tumor volume is formed. Starting from this batch, groups of 6 mice are generated at random.
To do this, 5·10^6 A549 cells were implanted subcutaneously in nude mice. Five days after this implantation, the tumors were measured and groups of 6 mice were formed. […] This granule is essential to the establishment of any E2-dependent human tumor in this animal species.
These conjugates are administered according to the same modes as the groups given the chemotherapy compounds alone; • the animals of the control batch are given injections of PBS, administered according to the same frequency.
The weight of the mice and the tumor volume are evaluated twice a week. The tumor volumes are calculated according to the formula: ½ (length·width·height).
(In xenograft studies the graft and the host belong to different species.)

The test system of a further assay is IRS-1. Put plainly: Tyrosine phosphorylation of IRS-1 in IGF-I-stimulated MCF7 cells. It is filed as cell-based, human. The following applies: antibodies 10 μg/ml, IGF-I 50 ng/ml. As to the method: MCF7 cells are cultured for 24 hours at 5·10^4 cells/cm^2 (75 cm^2 plates, COSTAR) in 20 ml of RPMI without phenol red, mixed with 5 mM of glutamine, penicillin/streptomycin (respectively 100 U/100 μg/ml) and 10% of fetal calf serum. After three washes in PBS, the cells were incubated for 12 hours in medium (RPMI) without phenol red, devoid of fetal calf serum and mixed with 5 mM of glutamine, penicillin/streptomycin, bovine serum albumin at 0.5 μg/ml (Sigma A-8022) and transferrin at 5 μg/ml (Sigma T8158).
For activation, the cells were first incubated at 37° C. for 2 minutes with blocking antibodies (10 μg/ml) and then IGF-I (Sigma I3769, 50 ng/ml) was added for two additional minutes. The reaction was stopped by aspiration of the incubation medium and the plates were laid on ice. […] The solutions were centrifuged at 12,000 rpm for ten minutes (4° C.) and the protein concentrations of the supernatants were quantified by BCA.
500 μg of proteins of the cell lysate were mixed with the anti-IGF-IR (Santa cruz Ref.: sc-713) for immunoprecipitation and incubated on the shaker at 4° C. for 1.5 hours. […] The supernatants were analyzed by electrophoresis on polyacrylamide SDS gel (8% Novex EC6015). […]

Assay [2] deals with MCF-7 cells. Put plainly: Cell cycle of MCF-7 cells with IGF1. It is filed as cell-based, human. The following applies: MCF-7 cells, 24 hours. The protocol: The inhibition of the cell growth observed in vitro on the line MCF-7 should be manifested by an effect on the cell cycle. In order to reply to this question, 4·10^5 cells are inoculated into 6-well plates. […] After incubation for 24 hours, the cells are recovered for the study of the cell cycle.

The test system of a further assay is Hybrid-R. Put plainly: Immunoprecipitation of Hybrid-R from R+/IR-A and R+/IR-B cell lysates. It is filed as binding. The source says:
The used cells for this study are listed thereafter: • R+: R− fibroblasts stably transfected with the IGF-I receptor (IGF-IR) cDNA • R−/IR-A: R− fibroblasts stably transfected with the insulin receptor isoform A (IR-A) cDNA • R−/IR-B:R− fibroblasts stably transfected with the insulin receptor isoform B (IR-B) cDNA • R+/IR-A: R− fibroblasts stably co-transfected with the IGF-I and the insulin receptor isoform A cDNA and, therefore, expressing hybrid receptors A (Hybrid-RsA) • R+/IR-B: R− fibroblasts stably co-transfected with the IGF-I and the insulin receptor isoform B cDNA and, therefore, expressing hybrid receptors B (Hybrid-RsB)
For the obtention of cellular lysat, cells were solubilized in RIPA buffer and 4 mg protein used for immunoprecipitation.
Following immunoprecipitation, the pellet was resuspended in 2× sample buffer and subjected to SDS-PAGE (7.5% polyacrylamide).
Filters were blotted as follows: Filters containing R+ lysates (and therefore only IGF-IR) with an anti-IGF-IR β-subunit (Santa Cruz). Filters containing lysates from all the remaining cells with an antibody anti-IR β-subunit (Santa Cruz).

Sequence of Hybrid-R (P08069 31-736 limits assumed): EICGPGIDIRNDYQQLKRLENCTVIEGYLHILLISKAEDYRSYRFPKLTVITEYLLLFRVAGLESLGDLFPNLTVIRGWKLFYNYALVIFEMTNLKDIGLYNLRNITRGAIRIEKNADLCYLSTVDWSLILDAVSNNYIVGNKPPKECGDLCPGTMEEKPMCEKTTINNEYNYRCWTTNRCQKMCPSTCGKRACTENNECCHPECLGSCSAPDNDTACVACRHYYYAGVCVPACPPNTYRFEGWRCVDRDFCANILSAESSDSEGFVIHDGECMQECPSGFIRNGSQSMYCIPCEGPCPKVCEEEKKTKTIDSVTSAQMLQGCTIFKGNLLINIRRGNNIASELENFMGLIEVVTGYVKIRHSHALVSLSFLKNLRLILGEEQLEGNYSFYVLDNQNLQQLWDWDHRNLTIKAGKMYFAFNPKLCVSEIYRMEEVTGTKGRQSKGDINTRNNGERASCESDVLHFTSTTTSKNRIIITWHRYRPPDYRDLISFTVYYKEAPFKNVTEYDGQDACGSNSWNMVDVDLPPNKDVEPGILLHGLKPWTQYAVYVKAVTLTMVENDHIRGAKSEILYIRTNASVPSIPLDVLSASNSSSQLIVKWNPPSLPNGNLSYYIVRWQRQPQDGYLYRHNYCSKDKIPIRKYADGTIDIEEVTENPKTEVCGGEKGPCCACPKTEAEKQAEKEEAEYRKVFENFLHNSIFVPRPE
Sequence of Hybrid-R (P08069 741-1367 limits assumed): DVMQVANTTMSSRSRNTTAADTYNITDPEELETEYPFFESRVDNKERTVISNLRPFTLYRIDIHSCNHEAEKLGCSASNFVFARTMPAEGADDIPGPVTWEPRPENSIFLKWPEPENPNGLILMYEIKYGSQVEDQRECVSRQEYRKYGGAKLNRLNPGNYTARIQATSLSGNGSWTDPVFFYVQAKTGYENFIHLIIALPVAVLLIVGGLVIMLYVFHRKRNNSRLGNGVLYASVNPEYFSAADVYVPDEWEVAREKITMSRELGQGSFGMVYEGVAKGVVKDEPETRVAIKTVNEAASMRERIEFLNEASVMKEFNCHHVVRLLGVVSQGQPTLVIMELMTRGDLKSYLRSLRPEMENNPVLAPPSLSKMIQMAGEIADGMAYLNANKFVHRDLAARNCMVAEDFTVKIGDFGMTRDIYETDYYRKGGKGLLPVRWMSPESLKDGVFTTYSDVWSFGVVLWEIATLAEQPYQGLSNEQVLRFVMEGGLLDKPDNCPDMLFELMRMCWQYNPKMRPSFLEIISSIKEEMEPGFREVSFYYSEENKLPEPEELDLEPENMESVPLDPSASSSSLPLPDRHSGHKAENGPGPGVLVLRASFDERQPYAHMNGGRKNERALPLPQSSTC

As for “h7C10: humanized 7C10 anti-IGF-IR antibody, isotype IgG1 (humanized 1 written 7H2HM)”, the “inhibition of IGF1-induced proliferation of MCF-7 cells” value in the assay on MCF-7 cells [1] was “perfectly preserved their properties of inhibiting the IGF1-induced growth”. Moreover, the “inhibition of A549 tumor growth in vivo, murine versus humanized antibody” value in the assay with A549 tumor is listed as “exactly the same intensity as that observed with its murine counterpart”. In addition, in the assay with IRS-1, the “inhibition of tyrosine phosphorylation of IRS-1” value is “inhibit the phosphorylation”. The “inhibition of IGF1-induced entry into the cell cycle” value in the assay on MCF-7 cells [2] was “significant inhibition of the entry into the cycle”. Moreover, the “recognition of Hybrid-R by immunoprecipitation” value in the assay on Hybrid-R is reported as “recognizes Hybrid-R”.

As for “7C10: murine monoclonal anti-IGF-IR IgG1 secreted by the hybridoma deposited at the CNCM under the number I-2717”, the “inhibition of IGF1-induced proliferation of MCF-7 cells” value with MCF-7 cells [1] is “significantly inhibits the growth”. In the assay on A549 tumor, the “inhibition of A549 tumor growth in vivo, murine versus humanized antibody” value was “significant inhibition of the tumor growth”. For the same substance, in the assay on A549 tumor (250 μg/dose/mouse twice per week i.p.), the “inhibition of A549 tumor growth in vivo” value is “significant activity; also recorded: as active as the conventional treatment with navelbine; also recorded: significant decrease in the tumor growth”. The “inhibition of tyrosine phosphorylation of IRS-1” value with IRS-1 is reported as “inhibit the phosphorylation”. Also, the “inhibition of IGF1-induced entry into the cell cycle” value with MCF-7 cells [2] was “significant inhibition of the entry into the cycle”. In addition, the “recognition of Hybrid-R by immunoprecipitation” value in the assay on Hybrid-R is given as “recognizes Hybrid-R”.
